This is an account of results in PubChem BioAssay (NCI).

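Compound exposure: 48 hours, 5 concentrations, 96-well plates. Here, GI50 denotes the concentration required for 50% inhibition of growth. TGI is the concentration that stops growth completely.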

Test systems include OVCAR-8 ovarian; LOX IMVI melanoma; M14 melanoma; SK-MEL-2 melanoma; HOP-92 NSCLC; RXF 393 renal; HS 578T breast; A549 NSCLC; IGROV1 ovarian; MDA-MB-435.
Assay in all cases: DTP human tumour cell line panel, 48 h

Regarding `[2H]C([2H])([2H])NC(=O)c1nnc(NC(=O)C2CC2)cc1Nc1cccc(-c2ncn(C)n2)c1OC`, the GI50 (usually the concentration that inhibits growth by half) in the test with OVCAR-8 ovarian is 27.4 µM; in the test with LOX IMVI melanoma, 14.5 µM; in the test on M14 melanoma, 9.22 µM; in the test with SK-MEL-2 melanoma, 10.6 µM; in the test on HOP-92 NSCLC, 17.9 µM; in the test on RXF 393 renal, 6.04 µM. Moreover, the GI50 in the test on HS 578T breast is 14.7 µM; in the test on A549 NSCLC, 50.1 µM; in the test on IGROV1 ovarian, 6.96 µM; in the test with MDA-MB-435 it was 56.7 µM. The TGI (commonly the concentration giving total growth inhibition) is more than 100 µM in the test with OVCAR-8 ovarian; more than 100 µM in the test on LOX IMVI melanoma; more than 100 µM in the test on M14 melanoma; 83.8 µM in the test on SK-MEL-2 melanoma; more than 100 µM with HOP-92 NSCLC; more than 100 µM with RXF 393 renal. The TGI with HS 578T breast, with A549 NSCLC, with IGROV1 ovarian and in the test on MDA-MB-435 was more than 100 µM in each case.
For the compound `O=C1c2cc(Cc3ccccc3)c(=O)c(Cc3ccccc3)cc2C(=O)c2cc(Cc3ccccc3)c(=O)c(Cc3ccccc3)cc21`, the TGI in the test on OVCAR-8 ovarian, in the test with LOX IMVI melanoma, with M14 melanoma, with SK-MEL-2 melanoma, in the test with HOP-92 NSCLC and in the test with RXF 393 renal was more than 100 µM each time. Besides, the TGI with HS 578T breast, with A549 NSCLC, in the test with IGROV1 ovarian and in the test with MDA-MB-435 was more than 100 µM throughout.
`CCCCNNC(=O)c1ccc(Br)cc1`: the GI50 was 1.5 µM with OVCAR-8 ovarian; 3.29 µM in the test with LOX IMVI melanoma; 2.46 µM with M14 melanoma; 1.83 µM in the test on SK-MEL-2 melanoma; 1.46 µM with HOP-92 NSCLC; 4.53 µM in the test with RXF 393 renal. Further, the GI50 with HS 578T breast is 4.27 µM; with A549 NSCLC, 5.34 µM; with IGROV1 ovarian it was 8.35 µM; in the test on MDA-MB-435, 2.21 µM. Besides, the TGI was more than 50 µM in the test with OVCAR-8 ovarian; 12.2 µM in the test on LOX IMVI melanoma; more than 50 µM in the test with M14 melanoma; more than 39.9 µM in the test on SK-MEL-2 melanoma; 11.4 µM in the test with HOP-92 NSCLC; 30.4 µM in the test on RXF 393 renal. For the same compound, the TGI with HS 578T breast, with A549 NSCLC, in the test with IGROV1 ovarian and with MDA-MB-435 was more than 50 µM throughout.
Consider `CCC(=O)N1C/C(=C/c2ccc(Cl)cc2)C(=O)/C(=C/c2ccc(Cl)cc2)C1`, for which the GI50 in the test with OVCAR-8 ovarian was 0.451 µM; in the test with LOX IMVI melanoma it was 0.161 µM; in the test with M14 melanoma, 0.992 µM; in the test with SK-MEL-2 melanoma, 2.01 µM; in the test on HOP-92 NSCLC it was 1.66 µM; in the test with RXF 393 renal, 0.723 µM. Also, the GI50 with HS 578T breast was 2.06 µM; in the test on A549 NSCLC, 0.868 µM; in the test with IGROV1 ovarian it was 0.998 µM; with MDA-MB-435, 0.403 µM. In addition, the TGI was determined as 2.12 µM in the test on OVCAR-8 ovarian; 0.354 µM with LOX IMVI melanoma; 2.6 µM with M14 melanoma; 3.94 µM in the test on SK-MEL-2 melanoma; 4.18 µM with HOP-92 NSCLC; 2.08 µM with RXF 393 renal. Besides, the TGI in the test with HS 578T breast was found to be 6.05 µM; with A549 NSCLC it was 4.14 µM; in the test with IGROV1 ovarian, 2.55 µM; in the test with MDA-MB-435, 1.64 µM.
In the case of `COc1cc2c(cc1OC)-c1ncc3c(OC)ccc(OC)c3c1C2`, the GI50 is 2.36 µM with OVCAR-8 ovarian; 16.7 µM in the test on LOX IMVI melanoma; more than 100 µM with M14 melanoma; 27.3 µM with SK-MEL-2 melanoma; 39.4 µM with HOP-92 NSCLC; 16.4 µM with RXF 393 renal. Further, the GI50 was 8.05 µM in the test with HS 578T breast, 16.1 µM in the test with A549 NSCLC, 13.9 µM in the test with IGROV1 ovarian and 23.4 µM in the test on MDA-MB-435. In addition, the TGI was 38.2 µM in the test on OVCAR-8 ovarian; more than 100 µM in the test on LOX IMVI melanoma; more than 100 µM in the test on M14 melanoma; 79 µM in the test with SK-MEL-2 melanoma; more than 100 µM with HOP-92 NSCLC; 48.9 µM with RXF 393 renal. For the same compound, the TGI is 42.4 µM with HS 578T breast, more than 100 µM with A549 NSCLC, 48.5 µM in the test with IGROV1 ovarian and 99.6 µM in the test with MDA-MB-435.
`N#Cc1nc(-c2ccc(F)cc2)oc1S(=O)(=O)N1CCCCC1`: the GI50 with OVCAR-8 ovarian is 3.19 µM; with LOX IMVI melanoma, 1.19 µM; in the test on M14 melanoma it was 1.77 µM; in the test on SK-MEL-2 melanoma, 2.03 µM; in the test on HOP-92 NSCLC it was 1.76 µM; in the test with RXF 393 renal, 1.91 µM. The GI50 in the test with HS 578T breast is 2.24 µM; with A549 NSCLC, 6.9 µM; in the test with IGROV1 ovarian it was 1.75 µM; with MDA-MB-435, 1.82 µM. For the same compound, the TGI stood at 24.1 µM with OVCAR-8 ovarian; 2.69 µM with LOX IMVI melanoma; 3.87 µM in the test with M14 melanoma; 4.92 µM in the test with SK-MEL-2 melanoma; 3.37 µM in the test on HOP-92 NSCLC; 3.38 µM in the test on RXF 393 renal. Besides, the TGI in the test on HS 578T breast was 5.74 µM; in the test on A549 NSCLC, 27.1 µM; in the test on IGROV1 ovarian, 3.5 µM; in the test on MDA-MB-435, 3.75 µM.
Turning to `CN1C(=O)c2ccc3ccccc3c2C1=O`, the TGI is more than 100 µM in the test on OVCAR-8 ovarian; more than 100 µM in the test on M14 melanoma; more than 100 µM in the test with SK-MEL-2 melanoma; more than 100 µM in the test with HOP-92 NSCLC; 96.6 µM in the test with RXF 393 renal; more than 100 µM with HS 578T breast. The TGI in the test on A549 NSCLC, in the test on IGROV1 ovarian and in the test on MDA-MB-435 was more than 100 µM each time.
Consider `O=C(NCCN1CCOCC1)OCc1nc2nc(Cl)nc(N3CCOCC3)c2[nH]1`, for which the GI50 in the test on OVCAR-8 ovarian is 2.09 µM; in the test with LOX IMVI melanoma, 0.382 µM; with SK-MEL-2 melanoma, 6.66 µM; in the test with HOP-92 NSCLC, 1.41 µM; in the test with RXF 393 renal, 1.87 µM; with HS 578T breast, 2.85 µM. The GI50 was 9.33 µM with A549 NSCLC, 2.7 µM in the test on IGROV1 ovarian and 0.651 µM in the test with MDA-MB-435. Moreover, the TGI was more than 100 µM in the test with OVCAR-8 ovarian; more than 100 µM in the test on LOX IMVI melanoma; more than 100 µM with SK-MEL-2 melanoma; more than 100 µM with HOP-92 NSCLC; 6.78 µM in the test on RXF 393 renal; more than 100 µM in the test on HS 578T breast. Also, the TGI with A549 NSCLC was more than 100 µM; in the test with IGROV1 ovarian it was more than 100 µM; with MDA-MB-435, 2.94 µM.
